Compared with `Cc1cccc(OCC(O)CNCCOc2ccccc2)c1` (stereo unspecified), `NCCOc1cc(-c2ccccn2)nc(-c2ccccn2)c1` is higher in melting point: 81 to 82 °C for the first, 134 to 137 °C for the second.

First: COC(=O)C[C@H](C(=O)OC)N1C(=O)[C@@H](N2C(=O)c3ccccc3C2=O)[C@H]1C=Cc1ccccc1
Second: CN1C(=O)[C@H](NC(=O)COc2ccc(Cl)cc2Cl)N=C(c2ccccc2)c2ccccc21
The melting point of the first is lower: 138 to 140 °C for the first, 206 °C for the second.

First: O=Cc1ccc(OC2CCCC2)c(O)c1
Second: Ic1c[nH]c2nccc(OC3CCCCC3)c12
The melting point of the first is lower: 87 to 89 °C for the first, 199 to 201 °C for the second.

First: COc1cnc(C(=O)Nc2c(Cl)cncc2Cl)cc1OC1CCCC1
Second: O=C(CC1CCCCC1)Nc1c(Cl)ccc2nc(N3CC[C@H](NCCc4nn[nH]n4)C3)ccc12
The melting point of the first is lower: 129 to 130 °C for the first, 220 to 221 °C for the second.

First: CC(C)n1nc(-c2c(OCC(=O)NC3CC3)nc(N)nc2-c2ccccc2)ccc1=O
Second: CC(C)C(C(=O)O)c1onc(-c2ccccc2)c1-c1ccc(S(N)(=O)=O)cc1 (stereo unspecified)
The melting point of the first is lower: 87 to 92 °C for the first, 148 to 149 °C for the second.

Compared with `Cn1nc(-c2cccc(N3Cc4cc(C(C)(C)C)ccc4C3=O)c2CO)cc(Nc2ccn(C3CNC3)n2)c1=O`, `Cc1ccc(NC(=O)c2c(C)cccc2NC(=O)OC(C)(C)C)cc1` is higher in melting point: 202 to 204 °C for the first, 250 °C for the second.

Compared with `O=C(N1CCC(c2ccncc2)CC1)N1CCN(S(=O)(=O)c2ccc(Cl)cc2)CC1`, `CCOC(=O)N1CCC(c2ccc(COc3ccc(S(C)(=O)=O)cc3)nc2)CC1` is lower in melting point: 234 to 235 °C for the first, 119 to 121 °C for the second.

First: Cc1cc(Br)c2c(c1)C=C(C(=O)O)C(C(F)(F)F)O2 (stereo unspecified)
Second: OCCCCc1n[nH]c2ccc(C(F)(F)F)cc12
The melting point of the first is higher: 237 to 238 °C for the first, 74 to 76 °C for the second.

First: c1ccc2c(c1)CSO2
Second: CC(C)n1nc(C(=O)O)c2ccccc21
The melting point of the first is lower: 87 °C for the first, 160 to 163 °C for the second.

Compared with `COc1ccc(S(=O)(=O)N2C(=O)C(O[Si](C)(C)C)(c3ccccc3OC)c3cc(Cl)c(C)cc32)c(OC)c1` (stereo unspecified), `COc1ccc(COc2cc(NC(C)=O)c(Cl)cc2C(=O)CCCCCl)cc1OC` is lower in melting point: 190 to 191 °C for the first, 147 °C for the second.

Compared with `O=C(Nc1ccc(Oc2ccnc(NC3CC3)n2)c2ccccc12)c1cc(F)cc(N2CCOCC2)c1`, `N#CC(NC(=O)c1cccn2cc(-c3ccccc3)nc12)c1ccco1` (stereo unspecified) is higher in melting point: 118 to 120 °C for the first, 197 to 199 °C for the second.

First: NC(=O)[C@H]1CN(c2ccc(I)c(F)c2)C(=O)O1
Second: Cc1noc(=O)c2ccc(N)cc12
The melting point of the first is lower: 176 to 178 °C for the first, 291 to 296 °C for the second.

First: CC(=O)c1cc(C)c2c(n1)-c1ccccc1C2=O
Second: CC(=O)Oc1cc(-c2nc3ccccc3[nH]c2=O)cc([N+](=O)[O-])c1OC(C)=O
The melting point of the first is lower: 170 to 172 °C for the first, 241 to 243 °C for the second.

First: Nc1ccccc1S(=O)c1nc2cc(Cl)ccc2[nH]1 (stereo unspecified)
Second: NC(=O)c1[nH]c2cccnc2c1Sc1cccc(F)c1
The melting point of the first is lower: 176 to 178 °C for the first, 235 to 237 °C for the second.

First: N#Cc1cnn(-c2ccc(Cl)cc2Cl)c1NN
Second: COC(=O)C1CCN(c2ccc(Cl)c(CBr)c2Cl)C1 (stereo unspecified)
The melting point of the first is higher: 199 to 204 °C for the first, 94 °C for the second.

First: S=C=Nc1ccc(-c2nc(-c3ccccn3)no2)cc1
Second: O=C(O)CCCCc1cc2ccccc2n1-c1cccnc1
The melting point of the first is higher: 145 to 146 °C for the first, 143 to 144 °C for the second.

Compared with `Cc1ccc(S(=O)(=O)Nc2ccc([N+](=O)[O-])cc2C)cc1`, `COC(=O)C1=C(C)NC(C)=C(C(=O)OC(C)C)C1c1cc([N+](=O)[O-])ccc1Cl` (stereo unspecified) is lower in melting point: 173 to 174 °C for the first, 163 °C for the second.

Compared with `O=C(O)COc1c(-c2ccccc2)cc([N+](=O)[O-])cc1-c1ccccc1`, `CN1c2ccccc2C2CCN(CCC(C(=O)N3CCCCCC3)c3ccccc3)CC21` (stereo unspecified) is lower in melting point: 154 to 156 °C for the first, 150 °C for the second.

First: CCc1c(C)nc2c(C)cccn2c1=O
Second: Cc1nn(Cc2ccccc2)c2c1C(=O)CC(C)(C)C2
The melting point of the first is lower: 90 to 92 °C for the first, 133 to 134 °C for the second.

First: Oc1ccc2c(c1)CCN(Cc1ccc3c(c1)OCO3)C2
Second: Cc1nc(C)c(Cl)c(NCc2ccc(Oc3ccc4ncc([N+](=O)[O-])n4n3)c(OCC3CC3)c2)n1
The melting point of the first is lower: 169 to 172 °C for the first, 178 to 180 °C for the second.

First: Cc1cc2nncn2nc1-c1cccc(N)c1
Second: O=C1CC(c2cccc(-n3ccnn3)c2)=Nc2ccc(C#Cc3ccc(F)cc3)cc2N1
The melting point of the first is lower: 182 to 186 °C for the first, 246 to 248 °C for the second.

First: Cc1cc2c(N)c([N+](=O)[O-])cnc2s1
Second: CCCOc1ccc(S(=O)(=O)N2CCN(C)CC2)cc1-c1nc2cc(Cl)c([N+](=O)[O-])cc2c(=O)[nH]1
The melting point of the first is higher: 238 to 240 °C for the first, 225 to 228 °C for the second.

First: CCCCCC(=O)OCc1cc(O)ncn1
Second: CCCC(C)Oc1ccc(C(=O)O)cc1 (stereo unspecified)
The melting point of the first is higher: 133 to 134 °C for the first, 67 to 68.8 °C for the second.

Compared with `CC(=O)NCC(CCl)OC(C)=O` (stereo unspecified), `CCOC(=O)c1cc2c3n(ccc-2n1)CC=N3` is higher in melting point: 68 to 69.5 °C for the first, 154 to 156 °C for the second.

Going from `O=c1c2c(c1=O)NCCCN2` to `COc1c(N=[N+]=[N-])ccnc1C#N`, the melting point falls from 335 °C to 102 °C.

For `CN(C)c1cc(CC(C#N)CNc2ccccc2)cc(N(C)C)c1N(C)C` (stereo unspecified), the melting point was 179 to 181 °C.

From a melting point compilation (Tetko et al.; mined from patent text by program, amines drawn as free bases though some values may be those of a salt)
